The values that follow come from patent USRE49850E1, “N-(pyridin-2-yl)-4-(thiazol-5-yl)pyrimidin-2-amine derivatives as therapeutic compounds” (AUCENTRA THERAPEUTICS PTY LTD, priority 2015, dated 2024).

The target in one assay is CDK7H (Homo sapiens, UniProt P50613). Briefly: Kinase assay CDK7H (radiometric profiling service). Type of assay: biochemical. The settings on record: for remaining activity at 10 µM: compound at 10 μM, read-out: % remaining enzymatic activity at 10 μM CDK7H; for Ki: apparent Ki calculated from Km (ATP) and IC50, read-out: CDK inhibition Ki CDK7H. The method, then: (§1) Eurofins Pharma Discovery or Reaction Biology Corporation Kinase Profiler services were used to measure inhibition of CDKs and other kinases by radiometric assay. Inhibition of CDK4/D1, CDK6/D3 and CDK9/T1 were also determined in-house using ADP Glo Kinase assays (Promega Corporation, Madison, USA). Briefly, the kinase reaction for CDK4/D1 and CDK6/D3 was performed with kinase reaction buffer ([…] Tris base pH 7.5, 20 mM MgCl2, 0.4 mM DTT), 0.1 mg/ml BSA and RB-CTF substrate (retinoblastoma protein1 C-terminal fraction). For CDK9/CyclinT1, the kinase reaction was performed with standard assay buffer and Kinase Dilution Buffer and RBER-IRStide substrate. Serial dilutions of 1:3 were prepared for test compounds for 10 concentrations (from 10 μM to 0.5 nM). The kinase reactions were started by addition of ATP, incubated for 40 min at 37° C. and then stopped by adding 10 μL of ADP Glo reagent. After incubation at room temperature in the dark for 40 min, 20 μL of kinase detection reagent was added per well and incubated for 40 min. Luminescence was measured using an EnVision Multilabel plate reader (PerkinElmer, Buckinghamshire, UK). Positive and negative controls were perfonned in the presence and absence of CDK kinases, respectively. Half-maximal inhibition (IC50) values were calculated using a 4-parameter logistic non-linear regression model with Graphpad prism (Version 6.0). Apparent inhibition constants (Ki) values were calculated from Km (ATP) and IC50 values for the respective kinases.
Chain of CDK7H (P50613 whole entry): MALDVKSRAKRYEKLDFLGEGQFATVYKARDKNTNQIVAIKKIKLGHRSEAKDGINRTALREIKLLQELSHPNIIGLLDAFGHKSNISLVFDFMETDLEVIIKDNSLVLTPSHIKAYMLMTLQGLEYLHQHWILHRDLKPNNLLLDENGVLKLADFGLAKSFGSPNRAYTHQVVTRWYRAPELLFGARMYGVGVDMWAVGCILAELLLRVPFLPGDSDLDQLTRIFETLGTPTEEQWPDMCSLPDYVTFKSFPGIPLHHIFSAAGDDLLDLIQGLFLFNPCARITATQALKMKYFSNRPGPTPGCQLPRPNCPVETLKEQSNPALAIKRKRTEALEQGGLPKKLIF
Chain of CDK7H (P51946 whole entry partner): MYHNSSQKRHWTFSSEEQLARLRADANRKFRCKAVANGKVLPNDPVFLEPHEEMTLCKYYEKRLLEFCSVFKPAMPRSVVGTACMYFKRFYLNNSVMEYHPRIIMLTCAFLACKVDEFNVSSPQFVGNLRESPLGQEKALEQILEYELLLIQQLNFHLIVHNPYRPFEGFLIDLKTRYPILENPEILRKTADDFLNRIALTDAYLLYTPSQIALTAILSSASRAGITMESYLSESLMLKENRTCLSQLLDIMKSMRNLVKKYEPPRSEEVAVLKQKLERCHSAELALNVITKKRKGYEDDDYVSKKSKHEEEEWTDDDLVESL
Chain of CDK7H (P51948 whole entry partner): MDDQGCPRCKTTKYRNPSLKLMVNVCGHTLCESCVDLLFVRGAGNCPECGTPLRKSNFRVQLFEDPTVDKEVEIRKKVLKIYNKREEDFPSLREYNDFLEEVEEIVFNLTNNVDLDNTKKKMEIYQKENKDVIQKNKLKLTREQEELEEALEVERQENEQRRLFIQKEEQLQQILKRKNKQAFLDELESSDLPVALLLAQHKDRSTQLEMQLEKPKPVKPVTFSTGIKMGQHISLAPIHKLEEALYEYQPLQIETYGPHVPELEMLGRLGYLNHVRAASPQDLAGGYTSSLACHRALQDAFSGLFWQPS

For another assay, the target named is CDK1B (Homo sapiens, UniProt P06493). Briefly: Kinase assay CDK1B (radiometric profiling service). The assay is classed as biochemical. The settings on record: for remaining activity at 10 µM: compound at 10 μM, read-out: % remaining enzymatic activity at 10 μM CDK1B; for Ki: apparent Ki calculated from Km (ATP) and IC50, read-out: CDK inhibition Ki CDK1B. The method, then: as §1
Chain of CDK1B (P06493 whole entry): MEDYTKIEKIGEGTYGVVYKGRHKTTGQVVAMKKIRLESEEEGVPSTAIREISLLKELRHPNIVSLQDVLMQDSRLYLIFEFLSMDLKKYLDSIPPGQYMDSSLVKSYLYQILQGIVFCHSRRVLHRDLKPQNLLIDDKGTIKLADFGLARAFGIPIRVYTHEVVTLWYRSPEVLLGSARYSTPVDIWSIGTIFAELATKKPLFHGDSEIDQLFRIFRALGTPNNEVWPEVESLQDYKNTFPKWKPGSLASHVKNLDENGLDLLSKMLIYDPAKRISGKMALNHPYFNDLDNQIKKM
Chain of CDK1B (P14635 whole entry partner): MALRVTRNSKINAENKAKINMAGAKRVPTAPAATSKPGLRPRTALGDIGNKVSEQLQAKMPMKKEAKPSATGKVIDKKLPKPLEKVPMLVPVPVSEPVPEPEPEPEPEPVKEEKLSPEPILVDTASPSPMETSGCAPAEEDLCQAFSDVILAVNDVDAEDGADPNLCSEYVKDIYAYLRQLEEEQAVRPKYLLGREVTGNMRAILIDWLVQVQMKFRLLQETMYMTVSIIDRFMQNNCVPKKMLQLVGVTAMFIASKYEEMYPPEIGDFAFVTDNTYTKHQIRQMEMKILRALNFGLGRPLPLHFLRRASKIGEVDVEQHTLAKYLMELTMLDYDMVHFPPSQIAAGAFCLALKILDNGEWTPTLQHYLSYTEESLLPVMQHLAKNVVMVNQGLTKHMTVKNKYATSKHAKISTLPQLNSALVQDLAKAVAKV

Another assay relates to MV4-11. Briefly: Cell viability assay (resazurin, leukemia cell line) MV4-11. The assay is classed as cell-based, human. Particulars: Homo sapiens, MV4-11, 72 h; read-out: Anti-proliferative activity GI50 MV4-11. An excerpt:
(§2) Compounds from Example 1 were subjected to a standard MTT (3-(4,5-dimethylthiazol-2-yl)-2,5-diphenyltetrazolium bromide) and resazurin assays on solid tumour cell lines and leukemia cell lines, respectively, as previously reported (Wang S et al., J Med Chem 47:1662-1675, 2004 and Diab S. et al. CheMedChem 9:962-972, 2014).
For orientation: Resazurin is reduced to fluorescent resorufin, in cell work by metabolically active cells.

Another assay has as its system MDA-MB-453. Briefly: Cell viability assay (MTT, solid tumour cell line) MDA-MB-453. Type of assay: cell-based, human. The settings on record: Homo sapiens, MDA-MB-453, 72 h; read-out: Anti-proliferative activity GI50 MDA-MB-453.
Description: as §2

The next assay has as its target T1, CDK9T1 (Homo sapiens, UniProt P50750).
T1 construct: purchased Eurofins Pharma Discovery or Reaction Biology Corporation (service)
Briefly: Kinase assay CDK9/T1 (radiometric or ADP Glo). The assay is classed as biochemical. Particulars: for remaining activity at 10 µM: compound at 10 μM, read-out: % remaining enzymatic activity at 10 μM CDK9T1; for Ki: apparent Ki calculated from Km (ATP) and IC50, read-out: CDK inhibition Ki CDK9T1. The method, then: as §1

For another assay, the target named is T2, CDK6D3 (Homo sapiens, UniProt Q00534).
T2 construct: purchased Eurofins Pharma Discovery or Reaction Biology Corporation (service)
T2 sequence (Q00534 whole entry): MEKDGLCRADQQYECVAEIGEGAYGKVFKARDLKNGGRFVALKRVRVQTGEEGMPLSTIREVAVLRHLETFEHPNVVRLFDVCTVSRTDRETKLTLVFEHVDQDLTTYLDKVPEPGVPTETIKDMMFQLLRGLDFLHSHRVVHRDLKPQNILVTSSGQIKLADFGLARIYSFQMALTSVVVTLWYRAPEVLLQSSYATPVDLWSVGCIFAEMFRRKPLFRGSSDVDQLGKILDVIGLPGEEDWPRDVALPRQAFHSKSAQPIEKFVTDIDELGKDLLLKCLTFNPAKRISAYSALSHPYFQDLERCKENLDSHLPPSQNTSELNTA
T2 sequence (P30281 whole entry partner): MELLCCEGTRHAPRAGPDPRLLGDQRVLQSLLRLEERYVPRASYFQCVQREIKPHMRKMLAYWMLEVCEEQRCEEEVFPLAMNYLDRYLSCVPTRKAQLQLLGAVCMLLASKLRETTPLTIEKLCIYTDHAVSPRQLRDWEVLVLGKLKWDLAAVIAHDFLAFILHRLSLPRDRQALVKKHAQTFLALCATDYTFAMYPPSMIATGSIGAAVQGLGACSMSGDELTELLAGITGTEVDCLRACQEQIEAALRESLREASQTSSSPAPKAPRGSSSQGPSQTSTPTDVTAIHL
Briefly: Kinase assay CDK6/D3 (radiometric or ADP Glo). Type of assay: biochemical. Particulars: for remaining activity at 10 µM: compound at 10 μM, read-out: % remaining enzymatic activity at 10 μM CDK6D3; for Ki: apparent Ki calculated from Km (ATP) and IC50, read-out: CDK inhibition Ki CDK6D3. The protocol: as §1

The target of a further assay is CDK 2A (Homo sapiens, UniProt P24941). Briefly: Kinase assay CDK2A (radiometric profiling service). Type of assay: biochemical. Particulars: for remaining activity at 10 µM: compound at 10 μM, read-out: % remaining enzymatic activity at 10 μM CDK 2A; for Ki: apparent Ki calculated from Km (ATP) and IC50, read-out: CDK inhibition Ki CDK 2A. The protocol:
as §1

A further assay concerns the target T3, CDK4D1 (Homo sapiens, UniProt P11802).
T3 construct: purchased Eurofins Pharma Discovery or Reaction Biology Corporation (service)
As to the kind of experiment: Kinase assay CDK4/D1 (radiometric or ADP Glo). Type of assay: biochemical. The settings on record: apparent Ki calculated from Km (ATP) and IC50; read-out: CDK inhibition Ki CDK4D1. The method, then:
as §1

SMILES strings stand for the structures.

T1 sequence (P50750 whole entry): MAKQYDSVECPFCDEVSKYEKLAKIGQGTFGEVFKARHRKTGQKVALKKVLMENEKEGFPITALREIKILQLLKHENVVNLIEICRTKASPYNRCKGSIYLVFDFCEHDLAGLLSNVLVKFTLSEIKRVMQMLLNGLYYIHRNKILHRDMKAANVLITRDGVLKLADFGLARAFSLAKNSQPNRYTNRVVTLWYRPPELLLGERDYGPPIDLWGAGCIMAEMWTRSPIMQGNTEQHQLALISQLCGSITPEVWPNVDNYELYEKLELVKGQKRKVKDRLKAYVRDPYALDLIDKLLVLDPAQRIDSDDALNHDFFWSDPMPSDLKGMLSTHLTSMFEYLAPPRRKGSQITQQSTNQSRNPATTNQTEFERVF
T1 sequence (O60563 whole entry partner): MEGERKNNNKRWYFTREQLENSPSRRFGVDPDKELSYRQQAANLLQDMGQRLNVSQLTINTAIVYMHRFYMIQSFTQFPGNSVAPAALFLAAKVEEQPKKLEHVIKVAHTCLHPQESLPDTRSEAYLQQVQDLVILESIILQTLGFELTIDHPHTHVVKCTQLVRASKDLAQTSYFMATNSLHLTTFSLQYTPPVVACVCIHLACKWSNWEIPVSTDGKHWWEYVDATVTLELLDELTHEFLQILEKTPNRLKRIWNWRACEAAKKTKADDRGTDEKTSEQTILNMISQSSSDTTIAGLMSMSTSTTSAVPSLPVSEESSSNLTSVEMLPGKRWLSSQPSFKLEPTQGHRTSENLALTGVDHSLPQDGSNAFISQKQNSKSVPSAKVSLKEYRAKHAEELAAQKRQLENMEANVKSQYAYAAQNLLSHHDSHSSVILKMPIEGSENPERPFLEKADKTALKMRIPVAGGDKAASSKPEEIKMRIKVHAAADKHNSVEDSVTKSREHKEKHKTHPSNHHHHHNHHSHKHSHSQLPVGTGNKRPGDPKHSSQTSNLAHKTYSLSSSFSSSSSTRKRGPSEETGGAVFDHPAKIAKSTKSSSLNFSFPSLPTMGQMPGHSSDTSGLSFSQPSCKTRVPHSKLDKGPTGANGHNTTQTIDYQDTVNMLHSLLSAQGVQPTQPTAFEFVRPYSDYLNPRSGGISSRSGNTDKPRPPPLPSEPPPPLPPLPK
T3 sequence (P11802 whole entry): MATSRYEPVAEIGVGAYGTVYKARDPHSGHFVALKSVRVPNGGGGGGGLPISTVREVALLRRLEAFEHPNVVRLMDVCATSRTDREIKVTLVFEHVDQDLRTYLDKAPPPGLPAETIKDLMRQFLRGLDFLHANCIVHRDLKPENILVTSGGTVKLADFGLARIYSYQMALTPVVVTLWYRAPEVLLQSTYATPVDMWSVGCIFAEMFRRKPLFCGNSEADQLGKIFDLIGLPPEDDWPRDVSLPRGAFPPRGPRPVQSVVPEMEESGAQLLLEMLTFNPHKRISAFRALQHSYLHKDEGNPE
T3 sequence (P24385 whole entry partner): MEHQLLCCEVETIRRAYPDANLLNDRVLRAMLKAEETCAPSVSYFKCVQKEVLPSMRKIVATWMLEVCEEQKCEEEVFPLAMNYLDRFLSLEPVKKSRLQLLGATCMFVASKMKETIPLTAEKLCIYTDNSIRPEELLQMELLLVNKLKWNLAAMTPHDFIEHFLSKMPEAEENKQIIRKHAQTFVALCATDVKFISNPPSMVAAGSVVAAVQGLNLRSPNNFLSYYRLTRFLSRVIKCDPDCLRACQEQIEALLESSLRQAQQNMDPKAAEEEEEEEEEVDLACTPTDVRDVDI

In the case of `Cc1[nH]c(=O)sc1-c1ccnc(Nc2ccc(N3CCNCC3)cn2)n1` [Compound 97, 4-methyl-5-(2-((5-(piperazin-1-yl)pyridin-2-yl)amino)pyrimidin-4-yl)thiazol-2(3H)-one], the remaining activity (commonly the share of the control activity or signal that is left under treatment) at 10 µM at CDK7H is 24%; on CDK1B, 58%; at CDK9T1 it was 3%; on CDK6D3, 12%; on CDK 2A, 54%. Further, the concentration for 50% growth inhibition (GI50) (as a rule, the concentration giving 50% growth inhibition) is 1510 ± 802 nM in the assay on MV4-11 and > 10000 nM in the assay with MDA-MB-453.

Take `Cc1c(-c2ccnc(Nc3ccc(N4CCNCC4)cn3)n2)sc(=O)n1C1CCCC1` [Compound 96, 3-cyclopentyl-4-methyl-5-(2-((5-(piperazin-1-yl)pyridin-2-yl)amino)pyrimidin-4-yl)thiazol-2(3H)-one]: the remaining activity at 10 µM at CDK7H came out at 22%; on CDK1B it was 63%; on CDK9T1, 15%; at CDK6D3, 11%; on CDK 2A, 61%. The GI50 with MV4-11 is 792 ± 74 nM; in the assay on MDA-MB-453 it was 2860 ± 988 nM.

`Cc1nc(NC2CCCC2)sc1-c1nc(Nc2ccc(N3CCOCC3)cn2)ncc1F` [Compound 72]: the Ki at CDK7H and at CDK9T1 was > 5000 nM throughout. In addition, in the assay with MDA-MB-453, the GI50 was found to be 1440 ± 304 nM.

For the compound `CCc1nc(C)c(-c2ccnc(Nc3ccc(N4CCOCC4)cn3)n2)s1` [Compound 12, 4-(2-Ethyl-4-methylthiazol-5-yl)-N-(5-morpholinopyridin-2-yl)pyrimidin-2-amine], the Ki was > 5000 nM on CDK7H; > 5000 nM on CDK1B; 180 nM at CDK4D1; > 5000 nM at CDK9T1; 2340 nM at CDK 2A. Besides, the GI50 was 5290 ± 811 nM with MV4-11 and > 10000 nM in the assay on MDA-MB-453.

As to `Cc1nc(NC2CCCC2)sc1-c1ccnc(Nc2ccc(N3CCC(N)CC3)cn2)n1` [Compound 74, 5-(2-((5-(4-aminopiperidin-1-yl)pyridin-2-yl)amino)pyrimidin-4-yl)-N-cyclopentyl-4-methylthiazol-2-amine], the Ki is 1230 nM at CDK1B; 3 nM on CDK4D1; 173 nM on CDK9T1; 133 nM on CDK6D3; 181 nM on CDK 2A. Further, the figures for the GI50 in the assay with MV4-11 and in the assay with MDA-MB-453 were 22 ± 2 nM and 55 ± 12 nM, respectively.

In the case of `Cc1nc(N(C)C2CCCC2)sc1-c1ccnc(Nc2ccc(N3CCNCC3)cn2)n1` [Compound 85, N-cyclopentyl-N,4-dimethyl-5-(2-((5-(piperazin-1-yl)pyridin-2-yl)amino)pyrimidin-4-yl)thiazol-2-amine], the Ki at CDK1B was 1390 nM; at CDK4D1, 2 nM; at CDK9T1, 1800 nM; at CDK6D3, 10 nM; on CDK 2A, 174 nM. Further, the GI50 in the assay with MV4-11 turned out to be 285 ± 41 nM; in the assay on MDA-MB-453, 402 ± 6 nM.

In the case of `CCc1nc(C)c(-c2ccnc(Nc3ccc(N4CCN(C(C)=O)CC4)cn3)n2)s1` [Compound 10, 1-(4-(6-((4-(2-ethyl-4-methylthiazol-5-yl)pyrimidin-2-yl)amino)pyridin-3-yl)piperazin-1-yl)ethan-1-one], the Ki was > 5000 nM at CDK7H; > 5000 nM on CDK1B; 290 nM on CDK4D1; > 5000 nM on CDK9T1; > 5000 nM on CDK 2A. The figures for the GI50 in the assay with MV4-11 and in the assay on MDA-MB-453 were 5370 ± 1680 nM and > 10000 nM, respectively.

`Cc1nc(N(C2CCCC2)C2CCCC2)sc1-c1ccnc(Nc2ccc(N3CCNCC3)cn2)n1` [Compound 88, N,N-dicyclopentyl-4-methyl-5-(2-((5-(piperazin-1-yl)pyridin-2-yl)amino)pyrimidin-4-yl)thiazol-2-amine]: the Ki at CDK7H was > 5000 nM; on CDK1B, > 15000 nM; on CDK9T1, > 5000 nM; on CDK 2A, > 5000 nM. The GI50 in the assay on MV4-11 stood at 714 ± 179 nM; in the assay on MDA-MB-453, 373 ± 117 nM.

On to `O=CN1CCN(c2ccc(Nc3nccc(-c4sc(NC5CCCC5)nc4C(F)(F)F)n3)nc2)CC1` [Compound 79, 4-(6-((4-(2-(cyclopentylamino)-4-(trifluoromethyl)thiazol-5-yl)pyrimidin-2-yl)amino)pyridin-3-yl)piperazine-1-carbaldehyde], for which the Ki on CDK1B was 345 nM; on CDK4D1 it was 11 nM; at CDK9T1, > 5000 nM; at CDK6D3 it was 7 nM; on CDK 2A, 15 nM. For the same compound, the GI50 came to 4 ± 1 nM in the assay on MV4-11 and 336 ± 188 nM in the assay with MDA-MB-453.

Regarding `CCc1nc(C)c(-c2nc(Nc3ccc(N4CCN(C(C)=O)CC4)cn3)ncc2Cl)s1` [Compound 11, 1-(4-(6-((5-chloro-4-(2-ethyl-4-methylthiazol-5-yl)pyrimidin-2-yl)amino)pyridin-3-yl)piperazin-1-yl)ethan-1-one], the Ki on CDK7H was > 5000 nM; on CDK1B, > 5000 nM; at CDK4D1, 250 nM; on CDK9T1, > 5000 nM; at CDK 2A, > 5000 nM. In addition, the GI50 in the assay with MV4-11 and with MDA-MB-453 was > 10000 nM each time.

Take `Cc1nc(NC(C)C)sc1-c1ccnc(Nc2ccc(N3CCN(C)CC3)cn2)n1` [Compound 56, N-isopropyl-4-methyl-5-(2-((5-(4-methylpiperazin-1-yl)pyridin-2-yl)amino)pyrimidin-4-yl)thiazol-2-amine]: the Ki was 3810 nM at CDK1B; 3 nM on CDK4D1; 773 nM on CDK9T1; 15 nM at CDK6D3; 399 nM at CDK 2A. The GI50 with MV4-11 turned out to be 75 ± 5 nM; with MDA-MB-453, 618 ± 193 nM.

For the compound `Cc1nc(N(C)C)sc1-c1nc(Nc2ccc(N3CCOCC3)cn2)ncc1F` [Compound 50, 5-(5-fluoro-2-((5-morpholinopyridin-2-yl)amino)pyrimidin-4-yl)-N,N,4-trimethylthiazol-2-amine], the Ki on CDK7H was > 5000 nM; at CDK1B it was > 5000 nM; at CDK4D1 it was 44 nM; at CDK9T1 it was > 5000 nM; on CDK 2A, 69 nM. Besides, the GI50 came to 4680 ± 298 nM in the assay on MV4-11 and 5360 ± 501 nM in the assay on MDA-MB-453.

As for `CCN1CCN(c2ccc(Nc3nccc(-c4sc(NC5CCCC5)nc4C)n3)nc2)CC1` [Compound 66, N-cyclopentyl-5-(2-((5-(4-ethylpiperazin-1-yl)pyridin-2-yl)amino)pyrimidin-4-yl)-4-methylthiazol-2-amine], the Ki was 780 nM on CDK7H and 3020 nM on CDK1B. The GI50 was determined as 9 ± 1 nM in the assay with MV4-11 and 287 ± 70 nM in the assay with MDA-MB-453.

As for `CC(=O)N1CCN(c2ccc(Nc3nccc(-c4sc(NC5CCCC5)nc4C(F)(F)F)n3)nc2)CC1` [Compound 70, 1-(4-(6-((4-(2-(cyclopentylamino)-4-(trifluoromethyl)thiazol-5-yl)pyrimidin-2-yl)amino)pyridin-3-yl)piperazin-1-yl)ethan-1-one], the Ki at CDK1B was 297 nM; on CDK4D1, 4 nM; at CDK9T1 it was > 5000 nM; at CDK6D3, 6 nM; on CDK 2A, 14 nM. Besides, the figures for the GI50 in the assay on MV4-11 and in the assay with MDA-MB-453 were 12 ± 1 nM and 77 ± 1 nM, respectively.
